Results taken from patent publication US20260256792A1, “TREATMENT OF CHRONIC SPONTANEOUS URTICARIA BY ADMINISTERING (R)-2-[3-[4-AMINO-3-(2-FLUORO-4-PHENOXY-PHENYL)PYRAZOLO[3,4-D]PYRIMIDIN-1-YL]PIPERIDINE-1-CARBONYL]-4-METHYL-4-[4-(OXETAN-3-YL)PIPERAZIN-1-YL]PENT-2-ENENITRILE” (priority 2023, published 2026).

Test system: moderate-to-severe chronic spontaneous urticaria (CSU)
Assay: Phase 2 CSU study: urticaria activity score over 7 days (UAS7)
Assay type: in vivo, human
Conditions: Omalizumab-Naïve
From the text: The study comprises a 12 week, randomized, double-blind, placebo-controlled, multi-center, dose-ranging efficacy and safety phase, followed by a 40 week open label extension (OLE) phase (see FIG. 1). The study consists of three phases and an optional OLE phase. […] Clinically, CSU is characterized by the spontaneous and recurrent appearance of pruritic hives. The proposed primary endpoints were the UAS7 at Week 12 in EU and EU reference countries and the ISS7 in the US. Regardless of where a participant was from, all assessments were the same. The UAS7 score is a composite score containing both the HSS7 and the ISS7. This allowed a global assessment of the two key components of urticaria: hives and itch. […] The UAS is a validated PRO measure. […] The daily UAS scores range from 0 to 6 point/day. […] Patients were to complete the UAS using the e-diary. […] The following secondary endpoints were to be analyzed using the same approach as for the primary endpoint: • Change from baseline in UAS7 at Week 4 • Change from baseline in UAS7 at Week 12 (for US and US reference countries) • Change from baseline in ISS7 at Week 12 (except US and US reference countries) • Change from baseline in HSS7 at Week 12 The following responder secondary endpoints were to be analyzed using the Cochran-Mantel-Haenszel test adjusted by region: • Proportion of participants with UAS7<6 at Week 12 • Proportion of participants with UAS7=0 at Week 12 Participants who received selected prohibited medications and/or rescue medications were to be considered as non-responders for time points after the medication usage. For other participants, all available data including those collected during the off-treatment period were to be used to determine the responder/non-responder status. Missing data were to be considered as non-responders.

[1] = Ethnicity Non-Hispanic, 400 mg TID
[2] = History of angioedema No, 400 mg BID
[3] = History of angioedema No, 400 mg QPM
[4] = History of angioedema No, 400 mg TID
[5] = History of angioedema Yes, 400 mg BID
[6] = History of angioedema Yes, 400 mg QPM
[7] = History of angioedema Yes, 400 mg TID
[8] = Race All the Others, 400 mg BID
[9] = Race All the Others, 400 mg QPM
[10] = Race All the Others, 400 mg TID
[11] = Region Eastern Europe, 400 mg BID
[12] = Region Eastern Europe, 400 mg QPM
[13] = Region Eastern Europe, 400 mg TID
[14] = Region Latin America, 400 mg BID
[15] = Region Latin America, 400 mg QPM

## CC(C)(C=C(C#N)C(=O)N1CCC[C@@H](n2nc(-c3ccc(Oc4ccccc4)cc3F)c3c(N)ncnc32)C1)N1CCN(C2COC2)CC1 [rilzabrutinib, (R)-2-[3-[4-amino-3-(2-fluoro-4-phenoxy-phenyl)pyrazolo[3,4-d]pyrimidin-1-yl]piperidine-1-carbonyl]-4-methyl-4-[4-(oxetan-3-yl)piperazin-1-yl]pent-2-enenitrile]
Ethnicity Non-Hispanic, 400 mg QPM
  Change from Baseline in UAS7 at Week 12: Mean (SD): −10.78 (9.25)
[1]
  Change from Baseline in UAS7 at Week 12: LS Mean (SE): −19.24 (2.48)
  Change from Baseline in UAS7 at Week 12: Mean (SD): −22.02 (10.28)
Gender Female, 400 mg BID
  Change from Baseline in UAS7 at Week 12: Mean (SD): −13.23 (11.66)
Gender Female, 400 mg QPM
  Change from Baseline in UAS7 at Week 12: Mean (SD): −10.93 (9.28)
Gender Female, 400 mg TID
  Change from Baseline in UAS7 at Week 12: Mean (SD): −20.41 (11.94)
Gender Male, 400 mg BID
  Change from Baseline in UAS7 at Week 12: LS Mean (SE): −16.67 (3.54)
  Change from Baseline in UAS7 at Week 12: Mean (SD): −16.87 (13.20)
Gender Male, 400 mg QPM
  Change from Baseline in UAS7 at Week 12: LS Mean (SE): −8.84 (4.15)
  Change from Baseline in UAS7 at Week 12: Mean (SD): −9.58 (10.13)
Gender Male, 400 mg TID
  Change from Baseline in UAS7 at Week 12: Mean (SD): −12.72 (5.65)
[2]
  Change from Baseline in UAS7 at Week 12: LS Mean (SE): −15.01 (2.39)
  Change from Baseline in UAS7 at Week 12: LS Mean Diff vs. placebo (95% CI): −5.13 (−12.18, 1.92)
  Change from Baseline in UAS7 at Week 12: Mean (SD): −17.10 (12.56)
[3]
  Change from Baseline in UAS7 at Week 12: LS Mean (SE): −7.72 (2.58)
  Change from Baseline in UAS7 at Week 12: LS Mean Diff vs. placebo (95% CI): 2.16 (−5.19, 9.52)
  Change from Baseline in UAS7 at Week 12: Mean (SD): −9.12 (7.74)
[4]
  Change from Baseline in UAS7 at Week 12: LS Mean (SE): −17.97 (2.40)
  Change from Baseline in UAS7 at Week 12: LS Mean Diff vs. placebo (95% CI): −8.09 (−15.14, −1.03)
  Change from Baseline in UAS7 at Week 12: Mean (SD): −20.20 (12.00)
[5]
  Change from Baseline in UAS7 at Week 12: LS Mean (SE): −11.58 (3.69)
  Change from Baseline in UAS7 at Week 12: LS Mean Diff vs. placebo (95% CI): −1.91 (−11.17, 7.35)
  Change from Baseline in UAS7 at Week 12: Mean (SD): −8.60 (9.01)
[6]
  Change from Baseline in UAS7 at Week 12: LS Mean (SE): −11.20 (2.97)
  Change from Baseline in UAS7 at Week 12: LS Mean Diff vs. placebo (95% CI): −1.53 (−9.72, 6.65)
  Change from Baseline in UAS7 at Week 12: Mean (SD): −13.08 (11.63)
[7]
  Change from Baseline in UAS7 at Week 12: LS Mean (SE): −15.33 (3.68)
  Change from Baseline in UAS7 at Week 12: LS Mean Diff vs. placebo (95% CI): −5.66 (−14.82, 3.50)
  Change from Baseline in UAS7 at Week 12: Mean (SD): −16.58 (10.23)
[8]
  Change from Baseline in UAS7 at Week 12: LS Mean (SE): −11.33 (3.66)
  Change from Baseline in UAS7 at Week 12: LS Mean Diff vs. placebo (95% CI): −4.82 (−14.87, 5.24)
  Change from Baseline in UAS7 at Week 12: Mean (SD): −11.25 (10.32)
[9]
  Change from Baseline in UAS7 at Week 12: LS Mean (SE): −8.43 (3.32)
  Change from Baseline in UAS7 at Week 12: LS Mean Diff vs. placebo (95% CI): −1.92 (−11.55, 7.72)
  Change from Baseline in UAS7 at Week 12: Mean (SD): −9.59 (9.91)
[10]
  Change from Baseline in UAS7 at Week 12: LS Mean (SE): −14.94 (3.44)
  Change from Baseline in UAS7 at Week 12: LS Mean Diff vs. placebo (95% CI): 8.43 (−18.08, 1.23)
  Change from Baseline in UAS7 at Week 12: Mean (SD): −14.86 (9.62)
Race White, 400 mg BID
  Change from Baseline in UAS7 at Week 12: LS Mean (SE): −15.38 (2.37)
  Change from Baseline in UAS7 at Week 12: LS Mean Diff vs. placebo (95% CI): −4.73 (−11.30, 1.84)
  Change from Baseline in UAS7 at Week 12: Mean (SD): −15.92 (12.79)
Race White, 400 mg QPM
  Change from Baseline in UAS7 at Week 12: LS Mean (SE): −9.37 (2.37)
  Change from Baseline in UAS7 at Week 12: LS Mean Diff vs. placebo (95% CI): 1.28 (−5.33, 7.88)
Race White, 400 mg TID
  Change from Baseline in UAS7 at Week 12: LS Mean (SE): −17.97 (2.44)
  Change from Baseline in UAS7 at Week 12: LS Mean Diff vs. placebo (95% CI): −7.33 (−13.95, −0.70)
  Change from Baseline in UAS7 at Week 12: Mean (SD): −20.70 (11.84)
Region Asia, 400 mg BID
  Change from Baseline in UAS7 at Week 12: LS Mean (SE): −11.32 (3.76)
  Change from Baseline in UAS7 at Week 12: LS Mean Diff vs. placebo (95% CI): −4.86 (−15.18, 5.46)
  Change from Baseline in UAS7 at Week 12: Mean (SD): −11.25 (10.32)
Region Asia, 400 mg QPM
  Change from Baseline in UAS7 at Week 12: LS Mean (SE): −9.00 (3.50)
  Change from Baseline in UAS7 at Week 12: Mean (SD): −9.59 (9.91)
Region Asia, 400 mg TID
  Change from Baseline in UAS7 at Week 12: LS Mean (SE): −14.25 (3.99)
  Change from Baseline in UAS7 at Week 12: LS Mean Diff vs. placebo (95% CI): −7.78 (−18.32, 2.76)
[11]
  Change from Baseline in UAS7 at Week 12: LS Mean (SE): −6.34 (10.64)
  Change from Baseline in UAS7 at Week 12: LS Mean Diff vs. placebo (95% CI): 13.37 (−19.79, 46.54)
  Change from Baseline in UAS7 at Week 12: Mean (SD): −20.14 (18.13)
[12]
  Change from Baseline in UAS7 at Week 12: LS Mean (SE): −5.35 (5.65)
  Change from Baseline in UAS7 at Week 12: LS Mean Diff vs. placebo (95% CI): 14.37 (−6.40, 35.15)
  Change from Baseline in UAS7 at Week 12: Mean (SD): −5.79 (5.45)
[13]
  Change from Baseline in UAS7 at Week 12: LS Mean (SE): −25.97 (6.17)
  Change from Baseline in UAS7 at Week 12: LS Mean Diff vs. placebo (95% CI): −6.26 (−24.55, 12.03)
  Change from Baseline in UAS7 at Week 12: Mean (SD): −21.88 (11.40)
[14]
  Change from Baseline in UAS7 at Week 12: LS Mean (SE): −9.26 (3.71)
  Change from Baseline in UAS7 at Week 12: LS Mean Diff vs. placebo (95% CI): 2.62 (−7.19, 12.43)
  Change from Baseline in UAS7 at Week 12: Mean (SD): −10.23 (11.81)
[15]
  Change from Baseline in UAS7 at Week 12: LS Mean (SE): −10.74 (3.14)
  Change from Baseline in UAS7 at Week 12: LS Mean Diff vs. placebo (95% CI): 1.14 (−7.86, 10.15)
